Reference: patent publication US4421767A, “Compounds and methods for treating depression” (priority 1982, dated 1983)
Where two headings read alike, the source gives them in different places.

Assays:
non-neuronal MAO [1] = experiment: Ex vivo MAO activity after i.p. injection in rats, non-neuronal MAO; design: species or system rat
Description: (§1) Rats were injected with AFHBA (0.5 mg/kg, i.p.) alone or with AFHBA (0.5 mg/kg, i.p.) in combination with MFMD (2.0 mg/kg, i.p.) administered 30 minutes before AFHBA. Animals were killed 18 hours later and MAO activity (5-HT and phenethylamine as substrates) was determined in brain, heart, and liver. In the brain, AFHBA administered alone inhibited neuronal MAO by 72% and non-neuronal MAO by 37%.
(§2) III. Rats were injected with AFMBA (100 mg/kg, i.p.) and were killed 18 hours later. MAO activity was determined in the brain, heart, and liver using 5-HT and PEA.

MAO [2] = experiment: In vitro MAO inhibition; format: biochemical
neuronal MAO [3] = experiment: Ex vivo MAO activity after i.p. injection in rats, neuronal MAO; design: species or system rat
Description: as §1, §2

[4] = system: heart rate and blood pressure responses to tyramine; format: in vivo, rat; details: for Tyramine Potentiation: 5 days, tyramine i.d.; for Tyramine Potentiation over and above that of carbidopa: figure in brackets
Description: (§3) (B) Rats were gavaged with saline or carbidopa given at dosage of 10 or 100 mg/kg. Thirty minutes later, the rats were gavaged with saline or AFHBA given at a dosage of 62.5 μg/kg. This treatment was repeated daily for 5 days. On the 6th day, the rats were anaesthetized and heart rate and blood pressure responses to tyramine (0.3-50 mg/kg, i.d.) were determined. Additionally, monoamines and MAO activity were determined in various tissues, including brain.

[5] = system: partially purified hog kidney AADC; experiment: In vitro decarboxylation by partially purified hog kidney AADC (HPLC); format: in vitro ADME; details: with 10 μM MFMD (AADC inhibitor)
Description: (§4) AFHBA was incubated with partially purified hog kidney AADC at 37° for various times up to 2 hours.

[6] = as above; format: in vitro ADME; details: pig; hog kidney AADC, 37°, 2 hours, DL-mixture, HPLC; read-out: decarboxylation to the corresponding allylamine
Description: as §4

[7] = system: brain noradrenaline and 5-HT concentrations; experiment: Brain amine concentration, AFHBA with or without carbidopa pretreatment in rats (Table II); format: in vivo, rat; details: for Brain Amine Concentration, 5-HT / Brain Amine Concentration, Noradrenaline: 5 days
Description: as §3

MAO [8] = experiment: Ex vivo MAO activity in rats, protection by extracerebral AADC inhibitor; design: species or system rat; details: AFHBA 0.5 mg/kg i.p. + MFMD 2.0 mg/kg i.p. 30 min before, liver
Description: as §1
(§5) MAO activity was determined in the brain using 5-HT and phenethylamine (PEA) as substrates.

[9] = system: dopamine, DOPAC, 5-HT, and 5-HIAA concentrations in the brain; experiment: In vivo brain dopamine, DOPAC, 5-HT and 5-HIAA concentrations after i.p. injection in rats; design: species or system rat
Description: Rats were injected with AFHBA (0.5 mg/kg, i.p.) alone or with AFHBA (0.5 mg/kg, i.p.) in combination with MFMD (2 mg/kg, i.p.) or carbidopa (50 mg/kg, i.p.) given 30 minutes before the AFHBA. The rats were killed 18 hours later, and dopamine, DOPAC, 5-HT, and 5-HIAA concentrations were determined in the brain.

[10] = system: dopamine, DOPAC, 5-HT, and 5-HIAA concentrations in the brain; experiment: In vivo brain dopamine, DOPAC, 5-HT and 5-HIAA concentrations after oral dosing in rats; design: species or system rat; details: 18 hours
Description: In a separate experiment, rats were given AFHBA orally at various doses. The rats were killed 18 hours later and dopamine, DOPAC, 5-HT, and 5-HIAA concentrations were determined in the brain.

[11] = system: heart rate and blood pressure responses to tyramine; experiment: Potentiation of tyramine response after 5 days oral MAO inhibitor in rats (Table I); format: in vivo, rat; details: 5 days, tyramine i.d.
Description: (A) Rats were gavaged daily for 5 days with saline or 2-amino-4-fluoro-3-(3'-hydroxyphenyl)-3-butenoic acid (AFHBA) at dosages of 15.6, 62.5, 250, or 1000 μg/kg or with clorgyline at dosages of 1250 or 5000 μg/kg. On the 6th day, rats were anaesthetized and heart rate and blood pressure responses to tyramine (0.3-50 mg/kg) administered intraduodenally (i.d.) were determined. Additionally, monoamines and MAO activity were determined in various tissues including brain.

non-neuronal MAO [12] = experiment: Ex vivo brain MAO activity after oral gavage in rats, non-neuronal MAO; design: species or system rat; details: 18 hours
Description: as §5

neuronal MAO [13] = experiment: Ex vivo brain MAO activity after oral gavage in rats, neuronal MAO; design: species or system rat; details: 18 hours
Description: as §5

[14] = AFHBA 0.5 mg/kg i.p. + MFMD 2.0 mg/kg i.p. 30 min before, brain
[15] = AFHBA 0.5 mg/kg i.p. + MFMD 2.0 mg/kg i.p. 30 min before, heart
[16] = AFHBA alone 0.5 mg/kg i.p., 18 hours, brain
[17] = AFHBA alone 0.5 mg/kg i.p., 18 hours, heart
[18] = AFHBA alone 0.5 mg/kg i.p., 18 hours, liver
[19] = AFHBA 62.5 μg/kg + carbidopa 10 mg/kg
[20] = carbidopa 10000 μg/kg + AFHBA 62.5 μg/kg daily p.o.
[21] = carbidopa 100000 μg/kg + AFHBA 62.5 μg/kg daily p.o.
[22] = saline + AFHBA 62.5 μg/kg daily p.o.
[23] = AFHBA 0.5 mg/kg i.p. + MFMD 2 mg/kg i.p. 30 min before
[24] = AFHBA 0.5 mg/kg i.p. + carbidopa 50 mg/kg i.p. 30 min before
[25] = AFHBA alone 0.5 mg/kg i.p., 18 hours

decarboxylation in the presence of MFMD [5]: no decarboxylation was observed | metabolised at 2 h [6]: 50%
SMILES: NC(C(=O)O)C(=CF)c1cccc(O)c1 (racemic) [AFHBA, 2-Amino-4-fluoro-3-(3'-hydroxyphenyl)-3-butenoic acid]
inhibition of non-neuronal MAO, brain, MFMD pretreatment (non-neuronal MAO [1]; [14]): 28% | inhibition of non-neuronal MAO, heart, MFMD pretreatment (non-neuronal MAO [1]; [15]): 4% | inhibition of non-neuronal MAO, brain (non-neuronal MAO [1]; [16]): 37% | inhibition of non-neuronal MAO, heart (non-neuronal MAO [1]; [17]): 44% | MAO inhibition, liver (non-neuronal) (non-neuronal MAO [1]; [18]): 38% | MAO inhibition in vitro (MAO [2]): inactive or very weak inhibitor | inhibition of neuronal MAO, brain, MFMD pretreatment (neuronal MAO [3]; [14]): 68% | inhibition of neuronal MAO, heart, MFMD pretreatment (neuronal MAO [3]; [15]): 18% | inhibition of neuronal MAO, brain (neuronal MAO [3]; [16]): 72% | inhibition of neuronal MAO, heart (neuronal MAO [3]; [17]): 52% | MAO inhibition, liver (neuronal) (neuronal MAO [3]; [18]): 29% | potentiation of the tyramine response, combination versus AFHBA alone [4, 19]: the potentiation did not exceed that of AFHBA given alone | Tyramine Potentiation [4, 20]: 3.1 | Tyramine Potentiation over and above that of carbidopa ([4]; carbidopa 10000 μg/kg + AFHBA 62.5 μg/kg): 2.8 | Tyramine Potentiation [4, 21]: 5.0 | Tyramine Potentiation over and above that of carbidopa ([4]; carbidopa 100000 μg/kg + AFHBA 62.5 μg/kg): 2.2 | Tyramine Potentiation [4, 22]: 4.0 | effect on brain monoamines, combination versus single agents [7, 19]: at least equivalent to 250 μg/kg of AFHBA given alone or to 5000 μg/kg of clorgyline | Brain Amine Concentration, 5-HT [7, 20]: 894 ± 25 ng/g | Brain Amine Concentration, Noradrenaline [7, 20]: 694 ± 24 ng/g | Brain Amine Concentration, 5-HT [7, 21]: 815 ± 35 ng/g | Brain Amine Concentration, Noradrenaline [7, 21]: 327 ± 23 ng/g | Brain Amine Concentration, 5-HT [7, 22]: 531 ± 32 ng/g | Brain Amine Concentration, Noradrenaline [7, 22]: 391 ± 12 ng/g | MAO inhibition, liver, MFMD pretreatment (MAO [8]): totally blocked MAO inhibition | % Change from Control, 5-HIAA [9, 23]: -48% | % Change from Control, 5-HT [9, 23]: +92% | % Change from Control, DOPAC [9, 23]: -92% | % Change from Control, Dopamine [9, 23]: +50% | % Change from Control, 5-HIAA [9, 24]: -37% | % Change from Control, 5-HT [9, 24]: +92% | % Change from Control, DOPAC [9, 24]: -89% | % Change from Control, Dopamine [9, 24]: +54% | % Change from Control, 5-HIAA [9, 25]: -34% | % Change from Control, 5-HT [9, 25]: +30% | % Change from Control, DOPAC [9, 25]: -76% | % Change from Control, Dopamine [9, 25]: +25% | % Change from Control, 5-HIAA ([10]; 0.5 mg/kg oral): -11% | % Change from Control, 5-HT ([10]; 0.5 mg/kg oral): +26% | % Change from Control, DOPAC ([10]; 0.5 mg/kg oral): -55% | % Change from Control, 5-HIAA ([10]; 1.0 mg/kg oral): -23% | % Change from Control, 5-HT ([10]; 1.0 mg/kg oral): +74% | % Change from Control, DOPAC ([10]; 1.0 mg/kg oral): -72% | % Change from Control, Dopamine ([10]; 1.0 mg/kg oral): +17% | % Change from Control, 5-HIAA ([10]; 2.5 mg/kg oral): -41% | % Change from Control, 5-HT ([10]; 2.5 mg/kg oral): +140% | % Change from Control, DOPAC ([10]; 2.5 mg/kg oral): -79% | % Change from Control, Dopamine ([10]; 2.5 mg/kg oral): +28% | Tyramine Potentiation ([11]; AFHBA 15.6 μg/kg daily p.o., some potentiation at lowest doses of tyramine (footnote c)): 1.0 | Tyramine Potentiation ([11]; AFHBA 62.5 μg/kg daily p.o.): 4.0 | Tyramine Potentiation ([11]; AFHBA 250 μg/kg daily p.o.): 7.1 | Tyramine Potentiation ([11]; AFHBA 1000 μg/kg daily p.o.): 7.7 | % Inhibition of MAO, Non-neuronal (non-neuronal MAO [12]; 0.5 mg/kg oral): 41% | % Inhibition of MAO, Non-neuronal (non-neuronal MAO [12]; 1.0 mg/kg oral): 64% | % Inhibition of MAO, Non-neuronal (non-neuronal MAO [12]; 2.5 mg/kg oral): 83% | % Inhibition of MAO, Neuronal (neuronal MAO [13]; 0.5 mg/kg oral): 63% | % Inhibition of MAO, Neuronal (neuronal MAO [13]; 1.0 mg/kg oral): 71% | % Inhibition of MAO, Neuronal (neuronal MAO [13]; 2.5 mg/kg oral): 95%
